# Values of other authors as cited in patent US20240294453A1, “Deuterated agonists and methods of use” (priority 2018, published 2024).
# Test system: subjects with schizophrenia
# [1] = 5 mg or 50 mg orally once daily, 24 weeks
smiles,measurement,setting,value
O=C(N[C@@H]1C2CCN(CC2)[C@H]1Cc1cccnc1)c1cc2ccccc2o1 [TC-5619],"scores of CSB, UPSA-B, PANSS, CGI-I, CGI-S, or SGI-Cog vs placebo, P (none favored TC-5619)",[1],> 0.05
same,tolerability,[1],generally well tolerated
same,"SANS score vs placebo, 2-tailed P","5 mg, week 24",0.159
same,benefit in some outcome measures in tobacco users,"tobacco users, no concordance by dose, country, gender",Sporadic statistical benefit
same,"Scale for the Assessment of Negative Symptoms (SANS) composite score, benefit vs placebo","week 24, orally once daily, 5 mg or 50 mg, added to a new-generation antipsychotic",no statistical benefit
